Test results: ChEMBL document CHEMBL4256943, “Inhibitors of cyp17a1” (2016)

Species on record: Homo sapiens
Assay: Selectivity factor, ratio of IC50 for human membrane bound C-terminal His4-tagged CYP21A2delta19H mutant to IC50 for human membrane bound C-terminal His4-tagged CYP17A1delta19H mutant

## C[C@]12CC[C@H](O)C[C@@H]1/C(=N/O)C[C@@H]1[C@@H]2CC[C@]2(C)C(c3cccnc3)=CC[C@@H]12
  Ratio IC50: 68.9
